Test results published in patent US8008456B2, “Compositions containing, methods involving, and uses of non-natural amino acids and polypeptides” (Ambrx, Inc., priority 2004, dated 2011).

Assay: pH stability tests
Assay type: physicochemical
Experimental: This example provides the results of pH stability tests that were conducted on certain illustrative non-natural amino acids as an aid for predicting their properties for incorporation into non-natural amino acid polypeptides.

Compound: COCCOC(=O)NCCO/N=C(\C)COc1ccccc1
- pH stability (pH 4.0, 1 hour): 2%
- pH stability (pH 4.0, 1 day): 5%
- pH stability (pH 4.0, 2 days): 5%
- pH stability (pH 4.0, 3 days): 5%
- pH stability (pH 4.0, 4 days): 8%
- pH stability (pH 4.0, 5 days): 8%
- pH stability (pH 4.0, 6 days): 8%
- pH stability (pH 4.0, 7 days): 9%
- pH stability (pH 4.0, 10 days): 10%
- pH stability (pH 5.0, 1 hour): <1%
- pH stability (pH 5.0, 1 day): 5%
- pH stability (pH 5.0, 2 days): 5%
- pH stability (pH 5.0, 3 days): 5%
- pH stability (pH 5.0, 4 days): 5%
- pH stability (pH 5.0, 5 days): 5%
- pH stability (pH 5.0, 6 days): 5%
- pH stability (pH 5.0, 7 days): 5%
- pH stability (pH 5.0, 10 days): 5%
- pH stability (pH 6.5, 1 hour): <1%
- pH stability (pH 6.5, 1 day): <1%
- pH stability (pH 6.5, 2 days): <1%
- pH stability (pH 6.5, 3 days): <1%
- pH stability (pH 6.5, 4 days): <1%
- pH stability (pH 6.5, 5 days): <1%
- pH stability (pH 6.5, 6 days): <1%
- pH stability (pH 6.5, 7 days): <1%
- pH stability (pH 6.5, 10 days): <1%
- pH stability (pH 7.4, 1 hour): <1%
- pH stability (pH 7.4, 1 day): 15%
- pH stability (pH 7.4, 2 days): 15%
- pH stability (pH 7.4, 3 days): 15%
- pH stability (pH 7.4, 4 days): 15%
- pH stability (pH 7.4, 5 days): 15%
- pH stability (pH 7.4, 6 days): 15%
- pH stability (pH 7.4, 7 days): 15%
- pH stability (pH 7.4, 10 days): 15%
- pH stability (pH 8.0, 1 hour): <1%
- pH stability (pH 8.0, 1 day): 35%
- pH stability (pH 8.0, 2 days): 38%
- pH stability (pH 8.0, 3 days): 40%
- pH stability (pH 8.0, 4 days): 45%
- pH stability (pH 8.0, 5 days): 45%
- pH stability (pH 8.0, 6 days): 45%
- pH stability (pH 8.0, 7 days): 45%
- pH stability (pH 8.0, 10 days): 45%

Compound: COCCOC(=O)NCCO/N=C(\C)C(=O)Nc1ccccc1 [drawing 138]
- pH stability (pH 4.0, 1 hour): 4.0%
- pH stability (pH 4.0, 1 day): <1%
- pH stability (pH 4.0, 2 days): <1%
- pH stability (pH 4.0, 3 days): <1%
- pH stability (pH 4.0, 4 days): <1%
- pH stability (pH 4.0, 5 days): <1%
- pH stability (pH 4.0, 6 days): <1%
- pH stability (pH 4.0, 7 days): <1%
- pH stability (pH 4.0, 10 days): <1%
- pH stability (pH 5.0, 1 hour): 5.0%
- pH stability (pH 5.0, 1 day): <1%
- pH stability (pH 5.0, 2 days): <1%
- pH stability (pH 5.0, 3 days): <1%
- pH stability (pH 5.0, 4 days): <1%
- pH stability (pH 5.0, 5 days): <1%
- pH stability (pH 5.0, 6 days): <1%
- pH stability (pH 5.0, 7 days): <1%
- pH stability (pH 5.0, 10 days): <1%
- pH stability (pH 6.5, 1 hour): 6.5%
- pH stability (pH 6.5, 1 day): <1%
- pH stability (pH 6.5, 2 days): <1%
- pH stability (pH 6.5, 3 days): <1%
- pH stability (pH 6.5, 4 days): <1%
- pH stability (pH 6.5, 5 days): <1%
- pH stability (pH 6.5, 6 days): <1%
- pH stability (pH 6.5, 7 days): <1%
- pH stability (pH 6.5, 10 days): <1%
- pH stability (pH 7.4, 1 hour): 7.4%
- pH stability (pH 7.4, 1 day): <1%
- pH stability (pH 7.4, 2 days): <1%
- pH stability (pH 7.4, 3 days): <1%
- pH stability (pH 7.4, 4 days): <1%
- pH stability (pH 7.4, 5 days): <1%
- pH stability (pH 7.4, 6 days): <1%
- pH stability (pH 7.4, 7 days): <1%
- pH stability (pH 7.4, 10 days): <1%
- pH stability (pH 8.0, 1 hour): 8.0%
- pH stability (pH 8.0, 1 day): <1%
- pH stability (pH 8.0, 2 days): <1%
- pH stability (pH 8.0, 3 days): <1%
- pH stability (pH 8.0, 4 days): <1%
- pH stability (pH 8.0, 5 days): <1%
- pH stability (pH 8.0, 6 days): <1%
- pH stability (pH 8.0, 7 days): <1%
- pH stability (pH 8.0, 10 days): <1%

Compound: COCCOCNCCO/N=C(\C)CC(=O)c1ccccc1 [drawing 135]
- pH stability (pH 4.0, 1 hour): <1%
- pH stability (pH 4.0, 1 day): <1%
- pH stability (pH 4.0, 2 days): <1%
- pH stability (pH 4.0, 3 days): <1%
- pH stability (pH 4.0, 4 days): <1%
- pH stability (pH 4.0, 5 days): <1%
- pH stability (pH 4.0, 6 days): 2%
- pH stability (pH 4.0, 7 days): 2%
- pH stability (pH 4.0, 10 days): 3%
- pH stability (pH 5.0, 1 hour): <1%
- pH stability (pH 5.0, 1 day): <1%
- pH stability (pH 5.0, 2 days): <1%
- pH stability (pH 5.0, 3 days): <1%
- pH stability (pH 5.0, 4 days): <1%
- pH stability (pH 5.0, 5 days): <1%
- pH stability (pH 5.0, 6 days): <1%
- pH stability (pH 5.0, 7 days): <1%
- pH stability (pH 5.0, 10 days): <1%
- pH stability (pH 6.5, 1 hour): <1%
- pH stability (pH 6.5, 1 day): <1%
- pH stability (pH 6.5, 2 days): <1%
- pH stability (pH 6.5, 3 days): <1%
- pH stability (pH 6.5, 4 days): <1%
- pH stability (pH 6.5, 5 days): <1%
- pH stability (pH 6.5, 6 days): <1%
- pH stability (pH 6.5, 7 days): <1%
- pH stability (pH 6.5, 10 days): <1%
- pH stability (pH 7.4, 1 hour): <1%
- pH stability (pH 7.4, 1 day): <1%
- pH stability (pH 7.4, 2 days): <1%
- pH stability (pH 7.4, 3 days): <1%
- pH stability (pH 7.4, 4 days): <1%
- pH stability (pH 7.4, 5 days): 3%
- pH stability (pH 7.4, 6 days): 4%
- pH stability (pH 7.4, 7 days): 7%
- pH stability (pH 7.4, 10 days): 11%
- pH stability (pH 8.0, 1 hour): <1%
- pH stability (pH 8.0, 1 day): <1%
- pH stability (pH 8.0, 2 days): <1%
- pH stability (pH 8.0, 3 days): <1%
- pH stability (pH 8.0, 4 days): <1%
- pH stability (pH 8.0, 5 days): <1%
- pH stability (pH 8.0, 6 days): <1%
- pH stability (pH 8.0, 7 days): <1%
- pH stability (pH 8.0, 10 days): <1%
